Measurements: the OligoGym collection
Where “and” joins values, the source holds several entries; their conditions need not be identical. Equal entries are not always repeated. After the bases stand the sugars from the 5' end (letter, count) and the backbone: PS all phosphorothioate, else s phosphorothioate and o phosphodiester by linkage. Methylation of C is not given here. e = 2'-O-(2-methoxyethyl) (MOE); k = constrained ethyl (cEt); d = 2'-deoxy (DNA)

Target: SOD1
Settings: ASO

CCCACACCTTCACTGG (sugars ekddddddddekekee, linkages s1 o1 s8 o3 s2)
target mRNA inhibition (A431, 0.12 µM): 2% | target mRNA inhibition (A431, 0.6 µM): 0% | target mRNA inhibition (A431, 3 µM): 0% | target mRNA inhibition (A431, 15 µM): 12% | target mRNA inhibition (HepG2, 0.222 µM): 15% | target mRNA inhibition (HepG2, 0.667 µM): 31% | target mRNA inhibition (HepG2, 2 µM): 58% | target mRNA inhibition (HepG2, 6 µM): 81%

CCCACACCTTCACTGGT (sugars e3 k2 d7 k2 e3, PS)
target mRNA inhibition (HepG2, 3 µM): 18%

CCCCACACCTTCACTG (sugars ekddddddddekekee, linkages s1 o1 s8 o3 s2)
target mRNA inhibition (A431, 0.12 µM): 0% | target mRNA inhibition (A431, 0.6 µM): 0% | target mRNA inhibition (A431, 3 µM): 0% | target mRNA inhibition (A431, 15 µM): 0% | target mRNA inhibition (HepG2, 0.222 µM): 21% | target mRNA inhibition (HepG2, 0.667 µM): 36% | target mRNA inhibition (HepG2, 2 µM): 60% | target mRNA inhibition (HepG2, 6 µM): 75%

CCCTTCAGCACGCACAC (sugars e2 k2 d9 k2 e2, PS)
target mRNA inhibition (HepG2, 0.1875 µM): 14% | target mRNA inhibition (HepG2, 0.75 µM): 47% | target mRNA inhibition (HepG2, 3 µM): 82% | target mRNA inhibition (HepG2, 4 µM): 81% | target mRNA inhibition (HepG2, 12 µM): 97%

CCCTTCAGCACGCACACGGC (sugars e5 d10 e5, PS)
target mRNA inhibition (HepG2, 0.1875 µM): 17% | target mRNA inhibition (HepG2, 0.75 µM): 26% | target mRNA inhibition (HepG2, 3 µM): 59% | target mRNA inhibition (HepG2, 4 µM): 37% | target mRNA inhibition (HepG2, 12 µM): 83%

CCGAGGTCCTGGTTCCGAGG (sugars e5 d10 e5, PS)
target mRNA inhibition (HepG2, 4 µM): 18%

CCGTCGCCCTTCAGCAC (sugars e2 k2 d8 k2 e3, PS)
target mRNA inhibition (HepG2, 4 µM): 71%

CCGTCTCCGCGACTACTTTA (sugars e5 d10 e5, PS)
target mRNA inhibition (HepG2, 4 µM): 20%

CCGTGTTTTCTGGATAGAGG (sugars e5 d10 e5, PS)
target mRNA inhibition (HepG2, 5 µM): 44% and 37%

CCTCAGACTACATCCAA (sugars e2 k2 d8 k2 e3, PS)
target mRNA inhibition (HepG2, 0.1875 µM): 26% | target mRNA inhibition (HepG2, 0.75 µM): 51% | target mRNA inhibition (HepG2, 3 µM): 77% | target mRNA inhibition (HepG2, 4 µM): 73% | target mRNA inhibition (HepG2, 12 µM): 91%

CCTCAGACTACATCCAA (sugars e3 k2 d7 k2 e3, PS)
target mRNA inhibition (HepG2, 0.1875 µM): 16% | target mRNA inhibition (HepG2, 0.75 µM): 42% | target mRNA inhibition (HepG2, 3 µM): 58% and 70% | target mRNA inhibition (HepG2, 12 µM): 84%

CCTTCACTGGTCCATTA (sugars e3 k2 d7 k2 e3, PS)
target mRNA inhibition (HepG2, 3 µM): 8%

CGAAATTGATGATGCCCTGC (sugars e5 d10 e5, PS)
target mRNA inhibition (HepG2, 4 µM): 32%

CGCAAACCAGCACCCCGTCT (sugars e5 d10 e5, PS)
target mRNA inhibition (HepG2, 4 µM): 21%

CGCCGAGGTCCTGGTTCCGA (sugars e5 d10 e5, PS)
target mRNA inhibition (HepG2, 4 µM): 24%

CGTCGCCCTTCAGCACG (sugars e2 k2 d9 k2 e2, PS)
target mRNA inhibition (HepG2, 4 µM): 43%

CTACGACGCAAACCAGCACC (sugars e5 d10 e5, PS)
target mRNA inhibition (HepG2, 4 µM): 19%

CTAGCAGGATAACAGAT (sugars e3 k2 d7 k2 e3, PS)
target mRNA inhibition (HepG2, 3 µM): 39%

CTAGGCCACGCCGAGGTCCT (sugars e5 d10 e5, PS)
target mRNA inhibition (HepG2, 4 µM): 39%

CTATACAAATCTTCCAA (sugars e3 k2 d7 k2 e3, PS)
target mRNA inhibition (HepG2, 3 µM): 13%

CTCCTGAGAGTGAGATCACA (sugars e5 d10 e5, PS)
target mRNA inhibition (HepG2, 5 µM): 27%

CTCGAAATTGATGATGCCCT (sugars e5 d10 e5, PS)
target mRNA inhibition (HepG2, 4 µM): 31%

CTCGCCCACTCTGGCCCCAA (sugars e5 d10 e5, PS)
target mRNA inhibition (HepG2, 4 µM): 45%

CTGCACTGGTACAGCCT (sugars e3 k2 d7 k2 e3, PS)
target mRNA inhibition (HepG2, 3 µM): 3%

CTGGCAAAATACAGGTC (sugars e2 k2 d9 k2 e2, PS)
target mRNA inhibition (HepG2, 5 µM): 53%

CTGGCAAAATACAGGTC (sugars e3 k2 d7 k2 e3, PS)
target mRNA inhibition (HepG2, 3 µM): 18%

CTGTGATTTAAGTCTGG (sugars e2 k2 d9 k2 e2, PS)
target mRNA inhibition (HepG2, 5 µM): 61%

CTTCCCCACACCTTCAC (sugars e3 k2 d7 k2 e3, PS)
target mRNA inhibition (HepG2, 3 µM): 29%

CTTCCCCACACCTTCACT (sugars e5 d8 e5, linkages s1 o3 s9 o2 s2)
target mRNA inhibition (A431, 0.12 µM): 0% | target mRNA inhibition (A431, 0.6 µM): 8% | target mRNA inhibition (A431, 3 µM): 3% | target mRNA inhibition (A431, 15 µM): 0% | target mRNA inhibition (HepG2, 0.222 µM): 0% | target mRNA inhibition (HepG2, 0.667 µM): 8% | target mRNA inhibition (HepG2, 2 µM): 38% | target mRNA inhibition (HepG2, 6 µM): 48%

CTTTTAAGATTACAGTG (sugars e2 k2 d8 k2 e3, PS)
target mRNA inhibition (HepG2, 5 µM): 62%

CTTTTAAGATTACAGTG (sugars e2 k2 d9 k2 e2, PS)
target mRNA inhibition (HepG2, 5 µM): 53%

CTTTTAATAGCCTCATAATA (sugars e5 d10 e5, PS)
target mRNA inhibition (HepG2, 5 µM): 0%

CTTTTTCATGGACCACC (sugars e3 k2 d7 k2 e3, PS)
target mRNA inhibition (HepG2, 3 µM): 87%

GAAATTCTGACAAGTTT (sugars e3 k2 d7 k2 e3, PS)
target mRNA inhibition (HepG2, 3 µM): 14%

GAATCTTCAATAGACACATC (sugars e5 d10 e5, PS)
target mRNA inhibition (HepG2, 5 µM): 22% and 11%

GAATGTTTATTGGGCGA (sugars e2 k2 d8 k2 e3, PS)
target mRNA inhibition (HepG2, 4 µM): 47%

GACAAAGAAATTCTGACAAG (sugars e5 d10 e5, PS)
target mRNA inhibition (HepG2, 5 µM): 8%

GACAAGTTTAATACCCA (sugars e2 k2 d8 k2 e3, PS)
target mRNA inhibition (HepG2, 5 µM): 54%

GACTACATCCAAGGGAA (sugars e3 k2 d7 k2 e3, PS)
target mRNA inhibition (HepG2, 3 µM): 19%

GAGACTACGACGCAAACCAG (sugars e5 d10 e5, PS)
target mRNA inhibition (HepG2, 4 µM): 23%

GAGGACCTGCACTGGTA (sugars e3 k2 d7 k2 e3, PS)
target mRNA inhibition (HepG2, 3 µM): 17%

GAGGTCCTGGTTCCGAGGAC (sugars e5 d10 e5, PS)
target mRNA inhibition (HepG2, 4 µM): 31%
